Results reported in publication PMC7226045, “Ensartinib (X-396) Effectively Modulates Pharmacokinetic Resistance Mediated by ABCB1 and ABCG2 Drug Efflux Transporters and CYP3A4 Biotransformation Enzyme” (Cancers, 2020).

Key:
CYP2D6 = target: T1, CYP2D6 (Homo sapiens, UniProt P10635); test: Vivid CYP screening kit, recombinant CYP2D6; type: biochemical; details: recombinant enzyme
T1 construct: purchased Thermo Fisher Scientific; host or cells: insect microsomal fractions
Description: (§1) CYP inhibitory assay was performed as described previously. Experiments were performed with commercial Vivid CYP screening kits containing insect microsomal fractions enriched with a specific human CYP isoform, human CYP reductase, and in some cases, human cytochrome b5. The potential inhibitory activity of ensartinib toward CYP1A2, CYP2B6, CYP2C8, CYP2C9, CYP2C19, CYP2D6, CYP3A4, and CYP3A5 (i.e., all CYP isoforms that drug regulatory authorities recommend for testing of inhibition by new molecular entities) was then examined. Experiments were performed using a kinetic mode in black 96-well plates according to the manufacturer´s instructions. Briefly, 5-point serial dilutions of ensartinib or the model inhibitor recommended by the manufacturer in buffer were transferred into the wells, then a master mix consisting of a CYP isoenzyme with an NADPH regeneration system in buffer was added. After a 10 min pre-incubation, the reaction was initiated by adding a mixture of NADP^+ and the appropriate Vivid substrate, after which fluorescence was measured at 1 min intervals for 60 min using an Infinite M200 Pro microplate reader (Tecan, Männedorf, Switzerland). The enzyme concentration and incubation interval used for data evaluation (15 min) placed the systems within the linear regions of the appropriate reaction velocity curves. […]

MDCKII-par cells = test: substrate accumulation in control MDCKII-par cells; type: cell-based, canine; details: hoechst 33342, calcein AM, daunorubicin, mitoxantrone
Description: Cellular accumulation assay with hoechst 33342 and calcein AM was performed as described previously. Briefly, MDCKII-par, MDCKII-ABCB1, MDCKII-ABCG2, and MDCKII-ABCC1 cells were seeded at densities of 5.0 × 10^4, 5.0 × 10^4, 5.5 × 10^4, and 6.0 × 10^4 cells/well, respectively, on a transparent 96-well plate and grown to full confluence for 24 h under standard conditions. The cells were then washed twice with 1 × PBS, after which was added either a dilution of ensartinib in Opti-MEM (1, 5, 10, 25, or 50 µM) or a specific inhibitor to act as a positive control (1 µM LY335979, 1 µM Ko143, or 25 µM MK-571 for ABCB1, ABCG2, or ABCC1, respectively). […] The intracellular levels of the substrates were then determined at 1 min intervals for 30 min using a microplate reader (Infinite M200 Pro, Tecan, Männedorf, Switzerland). Fluorescence was monitored in bottom mode using excitation/emission wavelengths of 350/465 and 485/535 nm for hoechst 33342 and calcein AM, respectively.
The flow-cytometric inhibitory assay with daunorubicin and mitoxantrone was performed with minor modifications as described previously. […] Samples were then transferred into test-tubes and kept on ice until their fluorescence could be measured using a flow cytometer (BD FACSCanto II, Allschwil, Switzerland). […]

CYP2B6 = target: T2, CYP2B6 (Homo sapiens, UniProt P20813); test: Vivid CYP screening kit, recombinant CYP2B6; type: biochemical; details: recombinant enzyme
T2 construct: purchased Thermo Fisher Scientific; host or cells: insect microsomal fractions
Description: as §1

HepG2-CYP3A4 cells = test: Docetaxel combination assay (MTT), HepG2-CYP3A4; type: cell-based, human; details: 1 µM docetaxel
Description: MTT proliferation assay was performed as described previously.
Cell viability was measured after a 48 h incubation using the MTT method as described above. […] Sensitization effects of < 0%, 0%, and >0% indicate antagonism, additivity, and synergism, respectively.

T1 sequence (P10635 whole entry): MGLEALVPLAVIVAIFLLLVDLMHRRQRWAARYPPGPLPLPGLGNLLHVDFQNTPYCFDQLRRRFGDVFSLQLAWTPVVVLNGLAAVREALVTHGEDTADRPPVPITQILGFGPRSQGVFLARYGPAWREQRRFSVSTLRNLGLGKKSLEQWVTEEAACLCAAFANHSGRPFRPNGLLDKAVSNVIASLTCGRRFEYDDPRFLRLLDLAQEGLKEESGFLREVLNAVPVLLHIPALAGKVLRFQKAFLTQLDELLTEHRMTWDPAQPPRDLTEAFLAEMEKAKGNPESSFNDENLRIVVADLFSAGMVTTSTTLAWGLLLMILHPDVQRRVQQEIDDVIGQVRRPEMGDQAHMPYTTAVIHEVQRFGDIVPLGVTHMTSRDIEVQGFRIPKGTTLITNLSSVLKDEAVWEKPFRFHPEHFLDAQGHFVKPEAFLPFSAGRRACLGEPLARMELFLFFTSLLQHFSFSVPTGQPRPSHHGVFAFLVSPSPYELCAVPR
T2 sequence (P20813 whole entry): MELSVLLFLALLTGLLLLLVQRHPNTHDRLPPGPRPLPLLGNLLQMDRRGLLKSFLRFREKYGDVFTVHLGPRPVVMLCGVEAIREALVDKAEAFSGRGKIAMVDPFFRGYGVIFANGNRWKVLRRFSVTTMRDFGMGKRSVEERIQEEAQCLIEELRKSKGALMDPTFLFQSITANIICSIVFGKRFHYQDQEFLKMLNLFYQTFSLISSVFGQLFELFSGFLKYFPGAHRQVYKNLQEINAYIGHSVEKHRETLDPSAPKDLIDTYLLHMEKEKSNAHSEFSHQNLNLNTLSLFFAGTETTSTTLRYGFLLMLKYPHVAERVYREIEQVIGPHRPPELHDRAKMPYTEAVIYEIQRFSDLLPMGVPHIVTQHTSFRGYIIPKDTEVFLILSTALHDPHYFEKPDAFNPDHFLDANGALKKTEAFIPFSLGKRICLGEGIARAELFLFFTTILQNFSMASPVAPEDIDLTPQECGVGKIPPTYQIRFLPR

inhibitory effect on CYP2D6 (in words) (CYP2D6): no appreciable inhibitory effect | IC50 (CYP2D6; 15 min incubation, absolute IC50, read-out: CYP2D6 inhibition IC50): > 50 µM | inhibitory effect on CYP2B6 (in words) (CYP2B6): no appreciable inhibitory effect | IC50 (CYP2B6; 15 min incubation, absolute IC50, read-out: CYP2B6 inhibition IC50): > 50 µM
Structure (SMILES): C[C@@H]1CN(C(=O)c2ccc(NC(=O)c3cc(O[C@H](C)c4c(Cl)ccc(F)c4Cl)c(N)nn3)cc2)C[C@H](C)N1 [ensartinib, Ensartinib]
effect on the accumulation of any substrate in control cells (MDCKII-par cells): no significant effect | docetaxel sensitization in CYP3A4-overexpressing cells (HepG2-CYP3A4 cells; 25 µM ensartinib (but not 15 µM), 48 h MTT): comparable to that induced by ketoconazole | sensitization effect of combination with docetaxel (HepG2-CYP3A4 cells; HepG2-CYP3A4, <0% antagonism, =0% additivity, >0% synergism): synergistic
